Assay results published in patent US20200054555A1, “CONTACT LENS WITH FUNCTIONAL COMPONENTS AND PRODUCTS THEREOF” (UNICON OPTICAL CO., LTD., priority 2018, published 2020).

Assay: accumulated release of functional components from the contact lens over time, detected by high performance liquid chromatography
Assay type: physicochemical
Conditions: with a cyclic oligosaccharide or cyclic polysaccharide
Experimental: Further, the present invention uses high performance liquid chromatography to detect accumulation of the released functional components of the contact lens with increasing time. It is learned from FIG. 2: the contact lens of the present invention, which is a HEMA lens made up of 38% water by weight and a cyclic oligosaccharide or cyclic polysaccharide, can persistently release Vitamin B12 for a longer period of time (more than 12 hours). It is learned from FIG. 3: the contact lens of the present invention, which is an organosilicon hydrogel contact lens made up of 43% water by weight and a cyclic oligosaccharide or cyclic polysaccharide, can persistently release Vitamin B12 for a longer period of time (more than 12 hours). It is learned from FIG. 4: the contact lens of the present invention, which contains HEMA and 38% water by weight and a cyclic oligosaccharide or cyclic polysaccharide, can persistently release curcumin for a longer period of time (more than 20 hours). It is learned from FIG. 5: the contact lens of the present invention, which contains HEMA and 38% water by weight and a cyclic oligosaccharide or cyclic polysaccharide, can persistently release quercetin in a longer time interval (more than 20 hours). It is learned from FIG. 6: the contact lens of the present invention, which is made from HEMA and 38% water by weight, and a cyclic oligosaccharide or cyclic polysaccharide, can persistently release xanthophyll for a longer period of time (more than 30 hours).

[1] = HEMA contact lens, 38% water by weight, FIG. 2, 4, 5, 6

period of persistent release of the functional component from the contact lens (organosilicon hydrogel contact lens, 43% water by weight, FIG. 3) | Substance | period of persistent release of the functional component from the contact lens [1]
more than 12 hours | Vitamin B12 | more than 12 hours
– | xanthophyll | more than 30 hours
